ChEMBL document CHEMBL1201862, “PubChem BioAssay data set” (2004)
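Method: 48-hour compound exposure of cells in 96-well plates, five concentrations, linear interpolation of endpoints. The concentration for 50% growth inhibition is given as GI50.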 Activity calls are given as the source filed them. Rule as the data show it: active = GI50 up to about 1.1 µM and inactive = higher.

Key:
Test in all cases: growth of human tumour cells (NCI), 48 h
MDA-MB-435 = test system: MDA-MB-435
Hs-578T = test system: Hs-578T
SK-MEL-5 = test system: SK-MEL-5
HL-60 = test system: HL-60
EKVX = test system: EKVX
HT-29 = test system: HT-29
SN12C = test system: SN12C
SK-MEL-28 = test system: SK-MEL-28
COLO 205 = test system: COLO 205
HOP-92 = test system: HOP-92
SF-539 = test system: SF-539
IGROV-1 = test system: IGROV-1
Malme-3M = test system: Malme-3M
MDA-N = test system: MDA-N
A549 = test system: A549
NCI-H23 = test system: NCI-H23
UACC-257 = test system: UACC-257
SNB-19 = test system: SNB-19
UO-31 = test system: UO-31
SNB-75 = test system: SNB-75

| Compound | GI50 (MDA-MB-435) | GI50 (Hs-578T) | GI50 (SK-MEL-5) | GI50 (HL-60) | GI50 (EKVX) | GI50 (HT-29) | GI50 (SN12C) | GI50 (SK-MEL-28) | GI50 (COLO 205) | GI50 (HOP-92) | GI50 (SF-539) | GI50 (IGROV-1) | GI50 (Malme-3M) | GI50 (MDA-N) | GI50 (A549) | GI50 (NCI-H23) | GI50 (UACC-257) | GI50 (SNB-19) | GI50 (UO-31) | GI50 (SNB-75) |
| --- | --- | --- | --- | --- | --- | --- | --- | --- | --- | --- | --- | --- | --- | --- | --- | --- | --- | --- | --- | --- |
| Cc1cccc2nc(-c3ccccc3)cc(=O)n12 | > 10 µM (inactive) | 12.5 µM (inactive) | 38.2 µM (inactive) | > 100 µM (inactive) | 7.26 µM (inactive) | > 100 µM (inactive) | 69.2 µM (inactive) | > 100 µM (inactive) | > 100 µM (inactive) | 61.7 µM (inactive) | > 100 µM (inactive) | 49.8 µM (inactive) | > 100 µM (inactive) | > 100 µM (inactive) | > 100 µM (inactive) | > 100 µM (inactive) | 91.8 µM (inactive) | > 100 µM (inactive) | – | – |
| CC1=CC(C)(C)NN1C1=NS(=O)(=O)c2ccccc2N1C | > 100 µM (inactive) | > 100 µM (inactive) | > 100 µM (inactive) | > 100 µM (inactive) | > 100 µM (inactive) | > 100 µM (inactive) | > 100 µM (inactive) | > 100 µM (inactive) | > 100 µM (inactive) | > 100 µM (inactive) | > 100 µM (inactive) | > 100 µM (inactive) | – | > 100 µM (inactive) | > 100 µM (inactive) | > 100 µM (inactive) | > 100 µM (inactive) | > 100 µM (inactive) | 78.3 µM (inactive) | – |
| CCN(CC(O)COc1ccc2c(c1)[n+]([O-])nc(N)[n+]2[O-])C(C)=O (stereo unspecified) | > 100 µM (inactive) | 63 µM (inactive) | 79.1 µM (inactive) | > 100 µM (inactive) | > 100 µM (inactive) | > 100 µM (inactive) | > 100 µM (inactive) | > 100 µM (inactive) | 3.7 µM (inactive) | – | > 100 µM (inactive) | > 100 µM (inactive) | – | > 100 µM (inactive) | > 100 µM (inactive) | 91.2 µM (inactive) | > 100 µM (inactive) | > 100 µM (inactive) | > 100 µM (inactive) | 38.9 µM (inactive) |
| CC(=O)Oc1cc2c[n+](C)c3c4cc(OC(C)=O)c(OC(C)=O)cc4ccc3c2cc1OC(C)=O | – | > 100 µM (inactive) | 3.17 µM (inactive) | – | 3.56 µM (inactive) | 2.72 µM (inactive) | 3.43 µM (inactive) | > 100 µM (inactive) | 6.5 µM (inactive) | 4.32 µM (inactive) | – | 2.49 µM (inactive) | 2.39 µM (inactive) | 5.51 µM (inactive) | 12.8 µM (inactive) | 4.23 µM (inactive) | 14.5 µM (inactive) | 2.3 µM (inactive) | 1.36 µM (inactive) | – |
| Nc1ncnc2c1ncn2[C@@H]1C[C@H]1CO | > 10 µM (inactive) | > 100 µM (inactive) | – | > 100 µM (inactive) | > 100 µM (inactive) | > 100 µM (inactive) | > 100 µM (inactive) | – | – | – | > 100 µM (inactive) | – | > 100 µM (inactive) | > 100 µM (inactive) | > 100 µM (inactive) | > 100 µM (inactive) | > 100 µM (inactive) | > 100 µM (inactive) | > 100 µM (inactive) | – |
| COC(=O)c1ccccc1C#CC#Cc1ccccc1C(=O)OC | > 10 µM (inactive) | > 10 µM (inactive) | > 10 µM (inactive) | 4.76 µM (inactive) | > 10 µM (inactive) | 6.4 µM (inactive) | > 10 µM (inactive) | > 10 µM (inactive) | 1.69 µM (inactive) | – | > 10 µM (inactive) | > 10 µM (inactive) | 6.79 µM (inactive) | > 10 µM (inactive) | > 10 µM (inactive) | > 10 µM (inactive) | > 10 µM (inactive) | > 10 µM (inactive) | > 10 µM (inactive) | – |
| O=C1/C(=C/c2cc3c(=O)c4ccccc4sc3s2)NC(=S)N1c1ccccc1 | > 100 µM (inactive) | > 100 µM (inactive) | 91.2 µM (inactive) | 12.2 µM (inactive) | 48.3 µM (inactive) | > 100 µM (inactive) | > 100 µM (inactive) | > 100 µM (inactive) | > 100 µM (inactive) | – | – | > 100 µM (inactive) | > 100 µM (inactive) | > 100 µM (inactive) | – | > 100 µM (inactive) | > 100 µM (inactive) | 24 µM (inactive) | > 100 µM (inactive) | 5.11 µM (inactive) |
| COc1cc(C2c3cc4c(cc3OC(C)(O)C2C)OCO4)cc(OC)c1OC (stereo unspecified) | 0.118 µM (active) | 0.449 µM (active) | 0.154 µM (active) | 0.182 µM (active) | 28.6 µM (inactive) | 0.344 µM (active) | 0.505 µM (active) | – | 0.49 µM (active) | – | 0.277 µM (active) | 0.625 µM (active) | 0.407 µM (active) | 0.0555 µM (active) | 0.197 µM (active) | 0.745 µM (active) | 65.2 µM (inactive) | 0.342 µM (active) | 0.857 µM (active) | – |
| CCOP(C)(=O)C(Nc1ccc(F)cc1)c1ccc(F)cc1 (stereo unspecified) | > 100 µM (inactive) | > 100 µM (inactive) | > 100 µM (inactive) | > 100 µM (inactive) | > 100 µM (inactive) | > 100 µM (inactive) | > 100 µM (inactive) | > 100 µM (inactive) | > 100 µM (inactive) | > 100 µM (inactive) | > 100 µM (inactive) | > 100 µM (inactive) | > 100 µM (inactive) | > 100 µM (inactive) | > 100 µM (inactive) | > 100 µM (inactive) | > 100 µM (inactive) | > 100 µM (inactive) | 71.3 µM (inactive) | – |
| CN1c2ccccc2S(=O)(=O)n2c(COc3ccccc3)nnc21 | > 100 µM (inactive) | > 100 µM (inactive) | > 100 µM (inactive) | 62.5 µM (inactive) | > 100 µM (inactive) | > 100 µM (inactive) | > 100 µM (inactive) | > 100 µM (inactive) | > 100 µM (inactive) | 56.5 µM (inactive) | 62.8 µM (inactive) | > 100 µM (inactive) | – | > 100 µM (inactive) | > 100 µM (inactive) | > 100 µM (inactive) | > 100 µM (inactive) | > 100 µM (inactive) | > 100 µM (inactive) | – |
| CCOC(=O)C1CCCc2sc(N)c(C#N)c21 (stereo unspecified) | – | > 100 µM (inactive) | > 100 µM (inactive) | > 100 µM (inactive) | 57.3 µM (inactive) | > 100 µM (inactive) | > 100 µM (inactive) | > 100 µM (inactive) | > 100 µM (inactive) | 70.6 µM (inactive) | – | > 100 µM (inactive) | > 100 µM (inactive) | > 100 µM (inactive) | > 100 µM (inactive) | > 100 µM (inactive) | > 100 µM (inactive) | > 100 µM (inactive) | > 100 µM (inactive) | > 100 µM (inactive) |
| C=C(C)C(=O)O[C@H]1C/C(CO)=C/CCC(=C)C(OC(C)=O)[C@H]2OC(=O)C(=C)[C@H]12 (stereo partly specified) | 4.61 µM (inactive) | 12.2 µM (inactive) | 14.7 µM (inactive) | 3.09 µM (inactive) | > 10 µM (inactive) | 5.86 µM (inactive) | 13.4 µM (inactive) | 7.76 µM (inactive) | 4.5 µM (inactive) | – | 13.6 µM (inactive) | 17.5 µM (inactive) | 3.96 µM (inactive) | 4.49 µM (inactive) | 19.1 µM (inactive) | 10.3 µM (inactive) | 10 µM (inactive) | 28.7 µM (inactive) | 5.19 µM (inactive) | 2.35 µM (inactive) |
| COC(=O)/C(=C(\C)NC(C)=O)c1c(C(=O)OC)[nH]c2ccccc12 | > 100 µM (inactive) | > 100 µM (inactive) | > 100 µM (inactive) | > 100 µM (inactive) | > 100 µM (inactive) | > 100 µM (inactive) | > 100 µM (inactive) | > 100 µM (inactive) | > 100 µM (inactive) | > 100 µM (inactive) | > 100 µM (inactive) | > 100 µM (inactive) | > 100 µM (inactive) | > 100 µM (inactive) | > 100 µM (inactive) | > 100 µM (inactive) | > 100 µM (inactive) | > 100 µM (inactive) | > 100 µM (inactive) | – |
| O=C1NC(Cc2c[nH]c3ccccc23)C(=O)N2C(c3ccccc3)c3[nH]c4ccccc4c3C[C@@H]12 (stereo partly specified) | 18.8 µM (inactive) | 16.5 µM (inactive) | 17.5 µM (inactive) | 20.5 µM (inactive) | 22.5 µM (inactive) | 22.1 µM (inactive) | 16.4 µM (inactive) | 29.7 µM (inactive) | 21.1 µM (inactive) | 25.1 µM (inactive) | – | 22.2 µM (inactive) | 15 µM (inactive) | 17.6 µM (inactive) | 25.8 µM (inactive) | 27.7 µM (inactive) | 25.4 µM (inactive) | 34.1 µM (inactive) | 23.5 µM (inactive) | – |
| O=C1NC2(CCCCC2)C(=O)N1CCN(CCCl)CCCl [SPIROMUSTINE] | > 25 µM (inactive) | > 25 µM (inactive) | > 241 µM (inactive) | 41.9 µM (inactive) | 204 µM (inactive) | > 250 µM (inactive) | 112 µM (inactive) | 97.5 µM (inactive) | > 230 µM (inactive) | – | 114 µM (inactive) | > 250 µM (inactive) | 165 µM (inactive) | > 25 µM (inactive) | 135 µM (inactive) | 106 µM (inactive) | 218 µM (inactive) | 187 µM (inactive) | 218 µM (inactive) | 173 µM (inactive) |
